Where “and” joins values, the source holds several entries; their conditions need not be identical. Equal entries are not always repeated. Entries after “also recorded” stand apart in the source; their conditions may differ.
Columns and labels:
[1] = tested on: mild to moderate plaque psoriasis; assay: Study of topical ruxolitinib (INCB018424) cream in plaque psoriasis, PASI response at day 28 (Example 1); type: in vivo, human; conditions: for Classification: therapeutic response at day 28, individual subjects; for % Change in PASI at Day 28: individual subjects
[2] = tested on: mild to moderate plaque psoriasis; assay: Double-blind, randomized, vehicle controlled dose ranging study of topical ruxolitinib (INCB018424) in plaque psoriasis, PASI response at day 28 and day 84 (Example 4); type: in vivo, human; conditions: for Classification: therapeutic response at day 84, individual subjects; for % Change in PASI at Day 28 / % Change in PASI at Day 84: individual subjects

N#CC[C@H](C1CCCC1)n1cc(-c2ncnc3[nH]ccc23)cn1 [INCB018424, (3R)-3-cyclopentyl-3-[4-(7H-pyrrolo[2,3-d]pyrimidin-4-yl)-1H-pyrazol-1-yl]propanenitrile]
Classification ([1]; 1.0% BID): Responder | Classification ([1]; 1.5% BID): Responder; also recorded: Non-Responder | Classification ([1]; 1.5% QD): Non-Responder; also recorded: Responder | % Change in PASI at Day 28 ([1]; topical cream 1.0% BID): −60.0% and −66.7% (2×) | % Change in PASI at Day 28 ([1]; topical cream 1.5% BID): −85.7% and −40.0% (2×) and −33.3% and −50.0% and −60.0% | % Change in PASI at Day 28 ([1]; topical cream 1.5% QD): −33.3% and −80.0% and −50.0% | Classification ([2]; 0.5% QD): Responder (individuals were classified as responders if they had >=50% improvement in psoriasis area severity index on day 84); also recorded: Non-Responder | Classification ([2]; 1.0% QD): Non-Responder; also recorded: Responder (individuals were classified as responders if they had >=50% improvement in psoriasis area severity index on day 84) | Classification ([2]; 1.5% QD): Non-Responder; also recorded: Responder (individuals were classified as responders if they had >=50% improvement in psoriasis area severity index on day 84) | % Change in PASI at Day 28 ([2]; topical cream 0.5% QD): −16.7% (2×) and −23.5% and −51.7% and −12.5% and −27.8% | % Change in PASI at Day 84 ([2]; topical cream 0.5% QD): −75% and −50% and −23.5% and −66.7% and −12.5% and −45.9% | % Change in PASI at Day 28 ([2]; topical cream 1.0% QD): −15.3% and 0% and 83.3% | % Change in PASI at Day 84 ([2]; topical cream 1.0% QD): 0% and −66.7% and 77.8% | % Change in PASI at Day 28 ([2]; topical cream 1.5% QD): −12.6% and −4.7% and −28% and −50% and −32% | % Change in PASI at Day 84 ([2]; topical cream 1.5% QD): −12.6% and −42.5% and −30% and −84.8% and −64%

Source: US11584961B2, “Biomarkers for inflammatory skin disease” (Incyte Corporation, priority 2018, dated 2023)
